Laboratory results from patent US6875421B2, “Method for detecting chitin-containing organisms” (Albert Einstein College of Medicine of Yeshiva University, priority 1997, dated 2005).

Experiments:
P. capitis nits = test: Visualizing nits on human hair under UV light; conditions: hair with attached nits dipped into 1% solution for two minutes, examined wet under UV light
Text: Human hair with attached P. capitis nits obtained as a waste product after barbering were obtained and dipped into a 1% solution of calcofluor white for two minutes. The hair was removed and examined wet under UV light. […] Identification was easy, specific, and totally unambiguous.

[1] = Toxicity: solution spread on dorsum of hands of volunteers; format: in vivo, human; conditions: 1% solution on dorsum of hands, 12 hours continuously
Experimental: The 1% solution was also spread on the dorsum of four hands of volunteers and allowed to remain continuously for 12 hours before being washed off.

deer ticks = test: Visualizing deer ticks under long range UV light; design: species or system deer tick
Text: Use as a visualizing agent for deer ticks was investigated as well. Live deer ticks were gathered from a wooded area in Westchester County, N.Y. and sprayed with a 1% solution of Calcofluor white. The ticks were placed on a white cotton sheet and exposed to long range UV light from a portable UV lamp.

## O=S(=O)(O)c1cc(Nc2nc(Nc3ccccc3)nc(N(CCO)CCO)n2)ccc1/C=C/c1ccc(Nc2nc(Nc3ccccc3)nc(N(CCO)CCO)n2)cc1S(=O)(=O)O [calcofluor white]
P. capitis nits
  visualization of nits (fluorescence) under UV light: clearly seen as brightly fluorescent white ovoid bodies
[1]
  physical reactions such as pruritus, erythema, induration or discoloration: did not provoke any physical reactions
  physical sensation on skin: caused no physical sensation
Deer ticks; live ticks sprayed with 1% solution, on white cotton sheet, portable UV lamp
  visualization of deer ticks (fluorescence) under long range UV light: easily visualized as brightly fluorescent objects
Deer ticks; ticks without autofluorescence, then sprayed and exposed to ultraviolet light
  fluorescence of deer ticks after subsequent spray: intense fluorescence
